Consider one compound from US20100092549A1, “Dosage Form Containing Two or More Active Pharmaceutical Ingredients in Different Physical Forms” (priority 2007, published 2010).

Structures can show the parent of a compound that is named as a salt.

The nature of this data set: Related substance testing by HPLC on interaction samples after storage. The class given is physicochemical.
Where [1] appears, read: 40/75: incubator 40° C./75% RH for 6 days.

Description: The APIs alone and two initial, conventional finished dosage forms were analysed under three different storage conditions, ie. cold room storage, kept in an oven at 60° C. for 7 days and stored in an incubator held at 40° C./75% RH for 6 days. The mixtures of one or both APIs with an excipient were analysed under two different storage conditions, ie. kept in an oven at 60° C. for 7 days and stored in an incubator held at 40° C./75% RH for 6 days.
The list of samples are as follows: • Fluoxetine HCl alone • Olanzapine alone • Fluoxetine HCl/Olanzapine Capsules • Fluoxetine HCl+Microcrystalline cellulose • Fluoxetine HCl+Pregelatinised maize starch • Fluoxetine HCl+Maize starch • Fluoxetine HCl+Magnesium stearate • Fluoxetine HCl+Olanzapine • Fluoxetine HCl+Olanzapine+Microcrystalline cellulose • Fluoxetine HCl+Olanzapine+Pregelatinised maize starch • Fluoxetine HCl+Olanzapine+Maize starch • Fluoxetine HCl+Olanzapine+Magnesium stearate • Olanzapine Tablets • Olanzapine+Lactose monohydrate • Olanzapine+Microcrystalline cellulose • Olanzapine+Maize starch • Olanzapine+Pregelatinised maize starch • Olanzapine+Crospovidone • Olanzapine+Magnesium stearate • Olanzapine+Opadry® II coating ingredients
The samples were analysed after the allotted period of time and the level of known and unknown related substances were determined by HPLC.

As for `CNCCC(Oc1ccc(C(F)(F)F)cc1)c1ccccc1` (stereo not drawn) [Fluox API, Fluoxetine HCl], the “Impurity 1 (unknown related substance)” value runs as follows: under setting [1], 0.041; (CR: cold room storage) 0.034; (Oven: 60° C. for 7 days) 0.039. The “Impurity 2 (unknown related substance)” value by setting is: under setting [1], 0.069; (CR: cold room storage) 0.068; (Oven: 60° C. for 7 days) 0.067.
